Test system: pool of HAP1 cells expressing GFP-tagged proteins
Assay: Live cell imaging of GFP-tagged HAP1 cell pool and arrayed clones: compound effects on levels and localization of tagged proteins
Type: cell-based, human
Procedure: Live cell imaging was performed on a PerkinElmer Opera Phenix microscope with excitation laser 488 nm, and emission filter 500-550 nm, 700 ms.
Identification of the expressed sgRNAs by in situ sequencing was performed by following and modifying published protocols, see, e.g., Feldman (2019) loc. cit; Ke (2013) Nat Methods 10, 857-60; and Larsson (2010) Nat Methods 7, 395-7.
Reverse transcription mix (1× RevertAid RT buffer, 250 µM dNTPs, 0.2 mg/mL BSA, 1 µM RT primer, 0.8 U/mL Ribolock RNase inhibitor, and 4.8 U/mL RevertAid H minus reverse transcriptase) was added to the sample and incubated for 16 hours at 37° C. Following reverse transcription, cells were washed 5 times with PBS-T and post-fixed with 3% paraformaldehyde and 0.1% glutaraldehyde for 30 minutes at room temperature and washed 5 times with PBS-T. Cells were incubated in a padlock probe and extension-ligation reaction mix (1× Ampligase buffer, 0.4 U/mL RNase H, 0.2 mg/mL BSA, 100 nM padlock probe, 0.02 U/mL KlenTaq polymerase, 0.5 U/mL Ampligase and […]) for 5 minutes at 37° C. and 90 minutes at 45° C., and then washed 2 times with PBS-T. Circularized padlocks were amplified with rolling circle amplification mix (1× Phi29 buffer, 250 µM dNTPs, 0.2 mg/mL BSA, 5% glycerol, and 1 U/mL Phi29 DNA polymerase) at 30° C. for 4 hours. Rolling circle amplicons were prepared for sequencing by hybridizing a mix containing sequencing primer oSBS_CROP-seq (1 µM primer in 2×SSC+10% formamide) for 30 minutes at room temperature. Barcodes were read out using sequencing-by-synthesis reagents from the Illumina NextSeq 500/550 kit v2 (Illumina 15057934). First, samples were washed with incorporation buffer (NextSeq 500/550 buffer cartridge, position 35) and incubated for 4 minutes in incorporation mix (NextSeq 500/550 reagent cartridge, position 31) at 60° C. Samples were then washed with incorporation buffer (4 washes, 60° C. for 4 minutes at the last wash) and placed in scan mix (NextSeq 500/550 reagent cartridge, position 30) for imaging. Imaging was performed on a PerkinElmer Opera Phenix microscope with excitation laser: 561 nm, emission filter: 570-630, 500 ms; excitation laser: 640 nm, emission filter: 650-760 nm, 500 ms using a 63× water immersion objective, confocal mode. Based were detected as follows: Base T: signal in 561 channel; Base C: signal in 640 channel, Base A: (weaker) signal in both channels, Base G: no signal. Following each imaging cycle, samples were washed with the cleavage mix (NextSeq 500/550 reagent cartridge, position 29) once followed by incubation with cleavage mix for 4 minutes at 60° C. to remove dye terminators. Samples were washed 5 times with incorporation buffer before starting the next cycle.
It was reasoned that the highly diverse pool of cells expressing GFP-tagged proteins can be used to identify compounds that change protein levels or localization of any of the tagged proteins. […] The application of the CROP-seq vector16 that expresses the sgRNA sequence in a polyadenylated mRNA transcript enables the cell-specific identification of the targeted intron by situ sequencing (see also Feldman, D. et al. Cell 179, 787-799 e17 (2019), Ke, R. et al. Nat Methods 10, 857-60 (2013), Larsson, C. et al. Nat Methods 7, 395-7 (2010). 17-19). To map targeted introns, the cell pool was fixed and a modified in situ sequencing protocol was developed to identify the sgRNA sequence integrated into individual cells in the pool. Based on the library diversity, eight cycles of nucleotide incorporation and imaging are sufficient to unambiguously assign sgRNA sequences (FIG. 6c). Application of this protocol to the cell pool confirmed that in clones with drastic loss of signal GFP was indeed targeted to BRD4 (FIG. 6d).
Therefore, the cell pool was treated with methotrexate (MTX), an antimetabolite impairing DNA and RNA synthesis and causing DNA damage by inhibiting tetrahydrofolate metabolism. […]

[1] = dBET6-treated cell pool, FIG. 6e

Structure (SMILES) | AKAP8 localization [1] | FUBP3 localization [1] | MEAF1 localization [1] | SFPQ localization [1] | UNG nuclear intensity [1] | DR1 nuclear signal (1 µM methotrexate (FIG. 10)) | GFP-tagged RPA1 localization (1 µM methotrexate (FIG. 10)) | GFP-tagged RPA2 localization (1 µM methotrexate (FIG. 10)) | NUDT21 nuclear signal (1 µM methotrexate (FIG. 10)) | PADI1 protein (1 µM methotrexate (FIG. 10)) | RUVBL1 protein (1 µM methotrexate (FIG. 10)) | TPI1 nuclear signal (1 µM methotrexate (FIG. 10)) | nuclear DNMT1 foci (1 µM methotrexate (FIG. 10)) | GFP-tagged ACLY localization (24 h MTX treatment, 1 µM methotrexate (FIG. 10))
Cc1sc2c(c1C)C(c1ccc(Cl)cc1)=N[C@@H](CC(=O)NCCCCCCCCNC(=O)COc1cccc3c1C(=O)N(C1CCC(=O)NC1=O)C3=O)c1nnc(C)n1-2 (some centres unmarked) [dBET6] | gain of nuclear foci | loss of subnuclear localization patterns | loss of subnuclear localization patterns | gain of nuclear foci | loss of nuclear intensity | – | – | – | – | – | – | – | – | –
CN(Cc1cnc2nc(N)nc(N)c2n1)c1ccc(C(=O)N[C@@H](CCC(=O)O)C(=O)O)cc1 [methotrexate] | – | – | – | – | – | gain of nuclear signal | formation of nuclear foci | formation of nuclear foci | gain of nuclear signal | decreases | decreases | gain of nuclear signal | disappearance of nuclear DNMT1 foci | increased nuclear localization

From patent US20240401027A1, “METHOD FOR IMPROVED INTRON TAGGING AND AUTOMATED CLONE RECOGNITION” (PROXYGEN GMBH, priority 2021, published 2024)
